# Where two headings read alike, the source gives them in different places. Numbered stars: 1 amine (or outer) side, 2 acyl side, 3 side chain; on linkers, the order of the positions; unused ones are H or OH. Bridge positions count the residues as written; N and C are the ends. Square brackets hold non-standard residues; d marks the D form. Peptide text beside a SMILES is read from it. * marks the point of attachment. Adda = CO[C@@H](Cc1ccccc1)[C@@H](C)/C=C(C)/C=C/[C@H](N[*:1])[C@H](C)C(=O)[*:2]; dAsp(3S-Me) = C[C@H](C(=O)[*:3])[C@@H](N[*:1])C(=O)[*:2]; d(γGlu) = O=C(O)[C@@H](CCC(=O)[*:2])N[*:1]; Cbz = O=C(OCc1ccccc1)*; NMeDha = C=C(NC)C(=O)O
# Key:
# [1] = tested on: PC-3-GFP^u cells; format: cell-based
# [2] = tested on: proteasome TL activity in the liver of Gobiocypris rarus; details: in vivo
# [3] = tested on: proteasome TL activity in PC-3-GFP^u whole cell extracts; format: cell-based
# [4] = tested on: animal cells; details: cited from earlier work
# [5] = tested on: proteasome CT activity in PC-3-GFP^u whole cell extracts; format: cell-based
# [6] = tested on: protease; details: cited from earlier work
# [7] = tested on: proteasome PGPH activity in PC-3-GFP^u whole cell extracts; format: cell-based
# [8] = tested on: serine/threonine protein phosphatases (PPs); details: cited from earlier work
structure (smiles),measurement,setting,value
CC(C)C[C@@H](C=O)NC(=O)[C@H](CC(C)C)NC(=O)[C@H](CC(C)C)NC(=O)OCc1ccccc1 [MG-132] (Cbz-Leu-Leu-Leu-aldehyde),GFP degradation / accumulation of ubiquitinated GFP,"[1]; MG-132 1 μM (positive control), 24 h, vs DMSO, fluorescence microscopy",GFP degradation was retarded and ubiquitinated GFP accumulated
"C=C1C(=O)N[C@H](C)C(=O)N[C@@H](CC(C)C)C(=O)N[C@@H](C(=O)O)[C@H](C)C(=O)N[C@@H](CCCNC(=N)N)C(=O)N[C@@H](/C=C/C(C)=C/[C@H](C)[C@H](Cc2ccccc2)OC)[C@H](C)C(=O)N[C@@H](C(=O)O)CCC(=O)N1C [MC-LR, microcystin-LR] (R[Adda][d(γGlu)][NMeDha][dA]L[dAsp(3S-Me)]-OH; lactam N-7)",dose dependence of inhibition of proteasome TL activity in the liver,[2],dose-dependently inhibited
same,inhibition rate of proteasome TL activity in the liver,[2]; pH 7.4,43%
same,inhibition of cellular proteasome TL activity,[3],34%
same,GFP degradation / accumulation of ubiquitinated GFP,[1],Ubiquitinated GFP also accumulated
same,induction of oxidative stress,[4],induce oxidative stress in animal cells
same,effect on cellular proteasome CT activity,[5],did not evidently change
same,degradation by protease,[6],cannot be degraded by protease
same,effect on cellular proteasome PGPH activity,[7],slightly inhibited
same,inhibition of serine/threonine protein phosphatases,[8],inhibition to serine/threonine protein phosphatases

# — publication PMC4488699, “Proteasome as a Molecular Target of Microcystin-LR” (Toxins, 2015)
